The values that follow come from ChEMBL document CHEMBL1126269, “Optimization of the quinoline and substituted benzyl moieties of a series of phenyltetrazole leukotriene D4 receptor antagonists” (J Med Chem, 1992).

“And” between values parts separate entries of the source, which are not always exact repeats. Identical values can stand only once.

One test relates to Cysteinyl leukotriene receptor (Cavia porcellus). Put plainly: In vitro inhibition of leukotriene D4 induced contractions of isolated guinea pig ileum.
What is called pKB is the negative decadic logarithm of the KB, by convention in mol/L. The molecule `COc1cccc(C(=O)O)c1Cn1nnc(-c2cccc(OCc3ccc4ccccc4n3)c2)n1` returned a pKB of 8.4. The same measure, in the same setting: in the case of `O=C(O)c1ccccc1Cn1nnnc1-c1cccc(OCc2ccc3ccccc3n2)c1` it was 6.5.

On to `O=C(O)Cc1ccccc1Cn1nnc(-c2cccc(OCc3ccc4ccccc4n3)c2)n1`, for which the pKB was 7.6. Same read-out and setting: in the case of `O=C(O)c1sccc1Cn1nnc(-c2cccc(/C=C/c3ccc4ccc(Cl)cc4n3)c2)n1` it was 7.8; in that of `O=C(O)c1ccoc1Cn1nnc(-c2cccc(/C=C/c3ccc4ccccc4n3)c2)n1`, 7.9. Still for that read-out and setting: in the case of `COc1cc(C(=O)O)ccc1Cn1nnc(-c2cccc(/C=C/c3ccc4ccccc4n3)c2)n1` it was 7.4; in that of `O=C(O)c1ccccc1Cn1nnc(-c2cccc(OCc3ccc4ccccc4n3)c2)n1`, 8.3 and 8.4; in that of `O=C(O)c1ccccc1Cn1nnc(-c2cccc(/C=C/c3ccc4ccccc4n3)c2)n1`, 8.5. The molecule `O=C(O)c1ccccc1Cn1nnc(-c2cccc(OCc3ccc4ccc(Cl)cc4n3)c2)n1` gave a pKB of 8.7. Still for that read-out and setting: the figure for `O=C(O)c1ccccc1Cn1nnc(-c2cccc(CSc3ccc4ccccc4n3)c2)n1` is 7; for `O=C(O)c1ccccc1CCn1nnc(-c2cccc(/C=C/c3ccc4ccc(Cl)cc4n3)c2)n1` it is 7.9; for `O=C(O)c1cccc(Cn2nnc(-c3cccc(/C=C/c4ccc5ccccc5n4)c3)n2)c1` it is 7.1. Still for that read-out and setting: in the case of `O=C(O)c1ccccc1Cn1nnc(-c2cccc(OCc3nc4ccccc4s3)c2)n1` it was 8.3; in that of `O=C(O)c1cc(F)ccc1Cn1nnc(-c2cccc(/C=C/c3ccc4ccc(Cl)cc4n3)c2)n1`, 9.1. In turn, `O=C(O)c1ccccc1Cn1nnc(-c2cccc(/C=C/c3ccc4ccc(Cl)cc4n3)c2)n1` yielded a pKB of 8.8. The molecule `COc1cc(C(=O)O)ccc1Cn1nnnc1-c1cccc(/C=C/c2ccc3ccccc3n2)c1` returned a pKB of 8.2. In turn, `O=C(O)Cc1ccccc1Cn1nnc(-c2cccc(/C=C/c3ccc4ccccc4n3)c2)n1` registered a pKB of 7.7.

In the next test the target is T1, Cysteinyl leukotriene receptor 1 (Cavia porcellus) (UniProt Q2NNR5).
T1 sequence (whole entry): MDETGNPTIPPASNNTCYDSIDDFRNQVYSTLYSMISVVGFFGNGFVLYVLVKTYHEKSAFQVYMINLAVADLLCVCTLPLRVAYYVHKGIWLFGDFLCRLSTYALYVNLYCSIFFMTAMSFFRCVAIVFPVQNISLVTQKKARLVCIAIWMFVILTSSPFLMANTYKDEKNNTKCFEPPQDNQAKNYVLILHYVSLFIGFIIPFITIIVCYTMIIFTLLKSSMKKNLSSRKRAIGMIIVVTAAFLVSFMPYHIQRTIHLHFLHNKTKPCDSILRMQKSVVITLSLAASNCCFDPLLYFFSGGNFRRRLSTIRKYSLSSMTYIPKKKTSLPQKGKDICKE
Description: Antagonistic activity in vitro against leukotriene-D4 (LTD4) induced guinea pig ileum contraction. The class given is functional, tissue-based.
The molecule `c1cc(OCc2ccc3ccccc3n2)cc(-c2nnn(Cc3ccccc3-c3nn[nH]n3)n2)c1` had a pKB of 9.1.
